What is called Ki is the dissociation constant of the complex between target and ligand, obtained from inhibition or displacement. A lower Ki goes with tighter binding. Usually ED50 stands for the dose at which the effect has come halfway, by size or by number of responders. Low values mean an effect at a small dose, high ones a need for a large dose.

In assay [1] the target is T1, Cannabinoid receptor 1 (Rattus norvegicus, UniProt P20272). Nature of the assay: Binding affinity for the cannabinoid brain receptor (CB1) using [3H]CP-55940.
T1 sequence (P20272 whole entry): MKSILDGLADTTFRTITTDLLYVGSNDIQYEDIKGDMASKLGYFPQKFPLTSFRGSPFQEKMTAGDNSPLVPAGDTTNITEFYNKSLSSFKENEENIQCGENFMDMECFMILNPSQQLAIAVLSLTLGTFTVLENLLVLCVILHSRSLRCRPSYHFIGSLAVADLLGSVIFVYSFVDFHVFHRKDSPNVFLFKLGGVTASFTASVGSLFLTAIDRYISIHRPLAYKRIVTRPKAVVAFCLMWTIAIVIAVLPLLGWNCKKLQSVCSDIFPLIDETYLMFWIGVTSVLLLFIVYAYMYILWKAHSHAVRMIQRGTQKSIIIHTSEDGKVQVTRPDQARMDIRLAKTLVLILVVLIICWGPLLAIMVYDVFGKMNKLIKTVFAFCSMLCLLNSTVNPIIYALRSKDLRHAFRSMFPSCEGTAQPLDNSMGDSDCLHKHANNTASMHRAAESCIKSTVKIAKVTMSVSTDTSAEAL
The species entered for assay [2] is Mus musculus. Nature of the assay: Compound was evaluated in mouse model for cannabimimetic activity, expressed as as effective dose for antinociception (TF). It counts as functional.
The species entered for assay [3] is Mus musculus. The assay is described as follows: Compound was evaluated in mouse model for cannabimimetic activity, expressed as as effective dose for hypothermia (rectal temperature, RT). The class given is functional.
The species entered for assay [4] is Mus musculus. Nature of the assay: Compound was evaluated in mouse model for cannabimimetic activity, expressed as effective dose for spontaneous activity(SA). The class given is functional.
The target of assay [5] is T1, Cannabinoid receptor 1. The assay is described as follows: Binding affinity for the Cannabinoid receptor using [3H]CP-55940 as radioligand.

Structures are written as SMILES.

With `CCCCC[C@@H](C)[C@H](C)c1cc(O)c2c(c1)OC(C)(C)[C@@H]1CC=C(C)C[C@@H]21`, the affinity at Cannabinoid receptor 1 [1], expressed as Ki, was 0.46 nM. The 50% effective dose (ED50) was determined as 0.03 µmol/kg in the assay listed under Mus musculus [2], 0.07 µmol/kg in the assay filed under Mus musculus [3] and 0.03 µmol/kg in the assay filed under Mus musculus [4].
Regarding `CCCCC[C@@H](C)[C@H](C)c1cc(O)c2c(c1)OC(C)(C)[C@@H]1CC=C(CO)C[C@@H]21`, the Ki at Cannabinoid receptor 1 [1] came to 0.49 nM. In addition, the median effective dose (ED50) amounted to 0.03 µmol/kg in the assay listed under Mus musculus [2], 0.02 µmol/kg in the assay filed under Mus musculus [3] and 0.01 µmol/kg in the assay listed under Mus musculus [4].
For `CCCCCCC(C)(C)c1cc(O)c2c(c1)OC(C)(C)[C@@H]1CC=C(CO)C[C@@H]21`, the inhibition constant (Ki) on Cannabinoid receptor 1 [5] was 0.73 nM. The values for the ED50 in the assay listed under Mus musculus [2], in the assay listed under Mus musculus [3] and in the assay filed under Mus musculus [4] were 0.02 µmol/kg, 0.05 µmol/kg and 0.01 µmol/kg, respectively.
In turn, `CCCCCCC(C)(C)c1cc(O)c2c(c1)OC(C)(C)[C@@H]1CC=C(C)C[C@@H]21` came in with a Ki at Cannabinoid receptor 1 [1] of 0.77 nM. In addition, the results for the ED50 in the assay listed under Mus musculus [2], in the assay filed under Mus musculus [3] and in the assay listed under Mus musculus [4] were 0.14 µmol/kg, 0.15 µmol/kg and 0.27 µmol/kg, respectively.

Source of the values: ChEMBL document CHEMBL1130934, “Enantioselective synthesis and pharmacology of 11-hydroxy-(1'S,2'R)-dimethylheptyl-delta 8-THC” (Bioorg Med Chem Lett, 1998).
